Assay results from the supplement of paper PMC13207355.
± gives the standard deviation of the averaged measurements.

Legend:
Conditions in all cases: exposure time: 72 h
E34 [1] = patient-derived glioblastoma stem cells of proneural subtype; experiment: phenotypic distance (Euclidean, principal components) from DMSO controls (arbitrary units); higher = stronger morphological change
E28 [2] = patient-derived glioblastoma stem cells of classical subtype; experiment: as above
E31 [3] = patient-derived glioblastoma stem cells of proneural subtype; experiment: as above
E21 [4] = patient-derived glioblastoma stem cells of mesenchymal subtype; experiment: as above
E57 [5] = patient-derived glioblastoma stem cells of mesenchymal subtype; experiment: as above
E13 [6] = patient-derived glioblastoma stem cells of classical subtype; experiment: as above
FT3469 [7] = normal neural stem cell line; experiment: as above
E34 [8] = experiment: surviving fraction (nuclei count normalised to DMSO); higher = more cells surviving (less toxic)
E28 [9] = experiment: as above
E31 [10] = experiment: as above
E21 [11] = experiment: as above
E57 [12] = experiment: as above
E13 [13] = experiment: as above
FT3469 [14] = experiment: as above
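Wherever phenotypic distance (Euclidean, principal components) from DMSO controls is given: cell Painting imaging in 384-well plates, CellProfiler features reduced to at least 20 principal components, Euclidean distance versus same-plate DMSO vehicle wells (0.1% v/v), median over six images per well.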
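Wherever surviving fraction (nuclei count normalised to DMSO) is given: nuclei counted by high-content imaging of Hoechst-stained cells in laminin-coated 384-well plates, relative to 0.1% DMSO vehicle wells, with staurosporine as cell-death control.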

Cc1cc(C(C)(C)CC(C)(C)C)ccc1OCCOCC[N+](C)(C)Cc1ccccc1 [Methyl benzethonium chloride]
Conditions | phenotypic distance | surviving fraction
E13 [6], 4.1 nM | 0.567 | –
E13 [6], 37 nM | 0.631 | –
E13 [6], 111.1 nM | 0.7 | –
E13 [6], 333.3 nM | 1.46 | –
E13 [6], 1000 nM | 2.26 | –
E13 [6], 3000 nM | 7.09 | –
E13 [13], 4.1 nM | – | 1.06
E13 [13], 37 nM | – | 0.985
E13 [13], 111.1 nM | – | 1
E13 [13], 333.3 nM | – | 0.905
E13 [13], 1000 nM | – | 0.77
E13 [13], 3000 nM | – | 0.0607
E21 [4], 4.1 nM | 0.505 | –
E21 [4], 37 nM | 0.8 | –
E21 [4], 111.1 nM | 1.42 | –
E21 [4], 333.3 nM | 1.89 | –
E21 [4], 1000 nM | 1.88 | –
E21 [4], 3000 nM | 7.45 | –
E21 [11], 4.1 nM | – | 1.05
E21 [11], 37 nM | – | 1.08
E21 [11], 111.1 nM | – | 1.13
E21 [11], 333.3 nM | – | 1.09
E21 [11], 1000 nM | – | 1.11
E21 [11], 3000 nM | – | 0.0579
E28 [2], 4.1 nM | 0.909 | –
E28 [2], 37 nM | 0.85 | –
E28 [2], 111.1 nM | 0.845 | –
E28 [2], 333.3 nM | 1.63 | –
E28 [2], 1000 nM | 1.45 | –
E28 [2], 3000 nM | 5.99 | –
E28 [9], 4.1 nM | – | 1.18
E28 [9], 37 nM | – | 1.12
E28 [9], 111.1 nM | – | 1.01
E28 [9], 333.3 nM | – | 1.03
E28 [9], 1000 nM | – | 0.915
E28 [9], 3000 nM | – | 0.122
E31 [3], 4.1 nM | 0.64 | –
E31 [3], 37 nM | 1.09 | –
E31 [3], 111.1 nM | 0.959 | –
E31 [3], 333.3 nM | 1.67 | –
E31 [3], 1000 nM | 1.56 | –
E31 [3], 3000 nM | 10.6 | –
E31 [10], 4.1 nM | – | 1.14
E31 [10], 37 nM | – | 1.3
E31 [10], 111.1 nM | – | 0.971
E31 [10], 333.3 nM | – | 1.04
E31 [10], 1000 nM | – | 0.959
E31 [10], 3000 nM | – | 0.0251
E34 [1], 4.1 nM | 0.669 | –
E34 [1], 37 nM | 1.03 | –
E34 [1], 111.1 nM | 3.75 | –
E34 [1], 333.3 nM | 1.62 | –
E34 [1], 1000 nM | 1.37 | –
E34 [1], 3000 nM | 2.97 | –
E34 [8], 4.1 nM | – | 1.05
E34 [8], 37 nM | – | 1.16
E34 [8], 111.1 nM | – | 1.28
E34 [8], 333.3 nM | – | 1.15
E34 [8], 1000 nM | – | 0.97
E34 [8], 3000 nM | – | 0.507
E57 [5], 4.1 nM | 0.767 | –
E57 [5], 37 nM | 0.775 | –
E57 [5], 111.1 nM | 0.964 | –
E57 [5], 333.3 nM | 1.11 | –
E57 [5], 1000 nM | 1.42 | –
E57 [5], 3000 nM | 5.11 | –
E57 [12], 4.1 nM | – | 1.1
E57 [12], 37 nM | – | 1.08
E57 [12], 111.1 nM | – | 0.952
E57 [12], 333.3 nM | – | 1.08
E57 [12], 1000 nM | – | 0.992
E57 [12], 3000 nM | – | 0.232
FT3469 [7], 4.1 nM | 0.966 | –
FT3469 [7], 37 nM | 0.81 | –
FT3469 [7], 111.1 nM | 1.14 | –
FT3469 [7], 333.3 nM | 1.12 | –
FT3469 [7], 1000 nM | 0.916 | –
FT3469 [7], 3000 nM | 5.6 | –
FT3469 [14], 4.1 nM | – | 1.08
FT3469 [14], 37 nM | – | 1.23
FT3469 [14], 111.1 nM | – | 1.28
FT3469 [14], 333.3 nM | – | 0.993
FT3469 [14], 1000 nM | – | 0.937
FT3469 [14], 3000 nM | – | 0.135

OC[C@H]1NC[C@H](O)[C@@H](O)[C@@H]1O [1-Deoxynojirimycin]
Conditions | phenotypic distance | surviving fraction
E13 [6], 4.1 nM | 0.633 ± 0.14 | –
E13 [6], 12.3 nM | 0.606 ± 0.04 | –
E13 [6], 37 nM | 0.865 ± 0.041 | –
E13 [6], 111.1 nM | 0.487 ± 0.12 | –
E13 [6], 333.3 nM | 0.742 ± 0.2 | –
E13 [6], 1000 nM | 0.501 ± 0.13 | –
E13 [6], 3000 nM | 0.63 ± 0.088 | –
E13 [13], 4.1 nM | – | 0.97 ± 0.11
E13 [13], 12.3 nM | – | 0.945 ± 0.013
E13 [13], 37 nM | – | 0.8513 ± 0.0051
E13 [13], 111.1 nM | – | 0.99 ± 0.11
E13 [13], 333.3 nM | – | 1.01 ± 0.18
E13 [13], 1000 nM | – | 1.01 ± 0.13
E13 [13], 3000 nM | – | 0.963 ± 0.07
E21 [4], 4.1 nM | 0.765 ± 0.32 | –
E21 [4], 12.3 nM | 0.361 ± 0.018 | –
E21 [4], 37 nM | 0.681 ± 0.079 | –
E21 [4], 111.1 nM | 0.62 ± 0.23 | –
E21 [4], 333.3 nM | 0.677 ± 0.17 | –
E21 [4], 1000 nM | 0.652 ± 0.047 | –
E21 [4], 3000 nM | 0.534 ± 0.12 | –
E21 [11], 4.1 nM | – | 0.994 ± 0.06
E21 [11], 12.3 nM | – | 1.02 ± 0.011
E21 [11], 37 nM | – | 0.9516 ± 0.0082
E21 [11], 111.1 nM | – | 0.977 ± 0.056
E21 [11], 333.3 nM | – | 1.04 ± 0.048
E21 [11], 1000 nM | – | 0.995 ± 0.016
E21 [11], 3000 nM | – | 0.914 ± 0.1
E28 [2], 4.1 nM | 1.27 ± 1.1 | –
E28 [2], 12.3 nM | 1.73 ± 1.8 | –
E28 [2], 37 nM | 0.489 ± 0.0059 | –
E28 [2], 111.1 nM | 0.561 ± 0.14 | –
E28 [2], 333.3 nM | 0.769 ± 0.13 | –
E28 [2], 1000 nM | 0.642 ± 0.045 | –
E28 [2], 3000 nM | 0.664 ± 0.026 | –
E28 [9], 4.1 nM | – | 1.02 ± 0.069
E28 [9], 12.3 nM | – | 1.01 ± 0.028
E28 [9], 37 nM | – | 1.009 ± 0.0082
E28 [9], 111.1 nM | – | 1.05 ± 0.0041
E28 [9], 333.3 nM | – | 1.04 ± 0.058
E28 [9], 1000 nM | – | 0.997 ± 0.015
E28 [9], 3000 nM | – | 1.02 ± 0.2
E31 [3], 4.1 nM | 0.644 ± 0.29 | –
E31 [3], 12.3 nM | 0.558 ± 0.24 | –
E31 [3], 37 nM | 0.579 ± 0.015 | –
E31 [3], 111.1 nM | 0.597 ± 0.2 | –
E31 [3], 333.3 nM | 0.552 ± 0.28 | –
E31 [3], 1000 nM | 0.479 ± 0.03 | –
E31 [3], 3000 nM | 0.614 ± 0.078 | –
E31 [10], 4.1 nM | – | 0.951 ± 0.052
E31 [10], 12.3 nM | – | 0.95 ± 0.018
E31 [10], 37 nM | – | 0.979 ± 0.065
E31 [10], 111.1 nM | – | 0.918 ± 0.12
E31 [10], 333.3 nM | – | 0.988 ± 0.094
E31 [10], 1000 nM | – | 1.03 ± 0.059
E31 [10], 3000 nM | – | 0.988 ± 0.18
E34 [1], 4.1 nM | 1.35 ± 1.2 | –
E34 [1], 12.3 nM | 0.664 ± 0.15 | –
E34 [1], 37 nM | 0.60231 ± 0.00028 | –
E34 [1], 111.1 nM | 0.433 ± 0.24 | –
E34 [1], 333.3 nM | 0.758 ± 0.14 | –
E34 [1], 1000 nM | 0.619 ± 0.093 | –
E34 [1], 3000 nM | 0.541 ± 0.065 | –
E34 [8], 4.1 nM | – | 1.02 ± 0.077
E34 [8], 12.3 nM | – | 0.878 ± 0.018
E34 [8], 37 nM | – | 0.9719 ± 0.0051
E34 [8], 111.1 nM | – | 0.948 ± 0.018
E34 [8], 333.3 nM | – | 0.937 ± 0.05
E34 [8], 1000 nM | – | 0.997 ± 0.12
E34 [8], 3000 nM | – | 1.02 ± 0.033
E57 [5], 4.1 nM | 0.636 ± 0.055 | –
E57 [5], 12.3 nM | 0.609 ± 0.089 | –
E57 [5], 37 nM | 0.696 ± 0.18 | –
E57 [5], 111.1 nM | 0.505 ± 0.21 | –
E57 [5], 333.3 nM | 0.518 ± 0.12 | –
E57 [5], 1000 nM | 0.442 ± 0.3 | –
E57 [5], 3000 nM | 0.63 ± 0.071 | –
E57 [12], 4.1 nM | – | 0.9939 ± 0.0068
E57 [12], 12.3 nM | – | 0.961 ± 0.026
E57 [12], 37 nM | – | 0.936 ± 0.025
E57 [12], 111.1 nM | – | 0.955 ± 0.046
E57 [12], 333.3 nM | – | 1.03 ± 0.055
E57 [12], 1000 nM | – | 0.978 ± 0.067
E57 [12], 3000 nM | – | 0.9675 ± 0.0049
FT3469 [7], 4.1 nM | 0.939 ± 0.66 | –
FT3469 [7], 12.3 nM | 0.685 ± 0.061 | –
FT3469 [7], 37 nM | 0.554 ± 0.023 | –
FT3469 [7], 111.1 nM | 0.511 ± 0.058 | –
FT3469 [7], 333.3 nM | 0.634 ± 0.0044 | –
FT3469 [7], 1000 nM | 0.682 ± 0.016 | –
FT3469 [7], 3000 nM | 0.673 ± 0.011 | –
FT3469 [14], 4.1 nM | – | 0.965 ± 0.016
FT3469 [14], 12.3 nM | – | 0.951 ± 0.14
FT3469 [14], 37 nM | – | 0.953 ± 0.047
FT3469 [14], 111.1 nM | – | 1.02 ± 0.14
FT3469 [14], 333.3 nM | – | 0.889 ± 0.083
FT3469 [14], 1000 nM | – | 1.04 ± 0.042
FT3469 [14], 3000 nM | – | 0.9 ± 0.021
